Assay results as given in patent publication US8841292B2, “Induced hypothermia” (Weil Institute of Critical Care Medicine, priority 2011, dated 2014).

Columns and labels:
[1] = tested on: rat model of cardiac arrest and resuscitation; assay: Rat model of cardiac arrest and resuscitation; format: in vivo
Description: The effects of WIN 55, 212-2 were investigated initially in our rat model of cardiac arrest and resuscitation. […] Ventricular fibrillation was induced and untreated for 6 mins and followed by 8 mins of CPR. Resuscitation was then attempted with defibrillation. WIN 55, 212-2 was infused intravenously 10 mins after resuscitation in a dose of 1 mg/kg/hour and continued for 6 hours. The body temperature decreased from 37 to 34° C. within 4 hours after infusion (FIG. 1).

porcine model of CPR = assay: Proposed porcine model study of cardiac arrest and resuscitation; format: in vivo, Sus scrofa; conditions: hypothesis
Source text: A porcine model of cardiac arrest and resuscitation in domestic pigs, weighing between 40±2 kg, is utilized for a proposed study that applicant is conducting. The porcine model is selected because (1) it has a large body mass and the timing of reduction in body temperature during hypothermia is close to that of the human. […] (3) A large animal model facilitates non-invasive measurements of myocardial function by echocardiographic methods, preserving an intact chest wall for conventional CPR, and specifically, precordial compression. (4) Our research team has had extensive experience for more than 20 years with the porcine model, under conditions of cardiac arrest and resuscitation.
Our aims are to investigate the effects of WIN55, 212-2, the cannabinoid CB1/CB2 receptor agonist, when administered immediately following resuscitation with or without physical surface body cooling on blood temperature, post resuscitation myocardial and cerebral functions, and duration of survival in our porcine model of CPR. We hypothesize that when WIN55, 212-2 is administered immediately following resuscitation, it will rapidly achieve the target blood temperature (34° C., <3 hours), therefore improving post-resuscitation myocardial and cerebral functions, and duration of survival. We further hypothesize that when WIN55, 212-2 is administered in combination with physical surface body cooling, the combination will further reduce the duration for achieving target blood temperature (<1 hour). It will therefore further improve post-resuscitation myocardial and cerebral functions, and duration of survival.
To test our hypotheses, the independent variables are the WIN55, 212-2 and WIN55, 212-2 with physical surface cooling. […]
In experiments, male domestic pigs, weighing 40±2 kg, are fasted overnight except for free access to water. […] End-tidal PC02 is monitored with an infrared analyzer (Model 01R-7101A, Nihon Kohden Corp, Tokyo, Japan). […]

normal rats = conditions: cited from earlier work
cannabinoid receptors = conditions: versus other neurotransmitter and ion channels; cited from earlier work

Structure (SMILES)	time after infusion for body temperature decrease to 34 ° C. ([1]; 1 mg/kg/hour i.v. infusion for 6 hours)	body temperature decreased to ([1]; 1 mg/kg/hour i.v. infusion from 10 mins after resuscitation for 6 hours, from 37 ° C.)	survival ([1]; all animals that received the drug)	neurological deficits ([1]; survivors)	post resuscitation myocardial function (ejection fraction, FIG. 2) ([1]; versus controls)	time to achieve target blood temperature (34° C.) (porcine model of CPR; administered immediately following resuscitation, drug alone)	time to achieve target blood temperature (porcine model of CPR; in combination with physical surface body cooling)	body temperature reduced to (normal rats; intramuscular injection, from 37 ° C.)	duration hypothermia was maintained (normal rats; intramuscular injection)	hypothermia, dose dependence (normal rats; intramuscular injection)	hypothermia effect with selective CB1 antagonist (normal rats; selective CB1 antagonist given)	selectivity for cannabinoid receptors (cannabinoid receptors)	blockade of the effects of WIN55, 212-2 (porcine model of CPR; pre-treatment with selective CB1 antagonist)
Cc1c(C(=O)c2cccc3ccccc23)c2cccc3c2n1[C@H](CN1CCOCC1)CO3 [WIN 55, 212-2]	≤ 4 h	34 °C	more than 72 hours	minimal neurological deficits	significantly better than the controls	< 3 h	< 1 h	34 °C	up to 5 hours	produced hypothermia in a dose-dependent manner	completely blocked	highly selective	
Cc1c(C(=O)NN2CCCCC2)nn(-c2ccc(Cl)cc2Cl)c1-c1ccc(Cl)cc1 [SR141716A]													completely blocked
